Experimental data reported in ChEMBL document CHEMBL5385934, “Identification of two novel chemical classes of Autotaxin (ATX) inhibitors using Enalos Asclepios KNIME nodes” (Bioorg Med Chem Lett, 2024).
Active and inactive are the calls of the source. No cut-off for these calls is given here.

What was measured:
Autotaxin [1] = biological target: T1, Autotaxin (Homo sapiens, UniProt Q13822); test: Inhibition of human ATX at 100 uM by Amplex Red assay relative to control
Autotaxin [2] = biological target: T1, Autotaxin; test: Inhibition of human ATX by Amplex Red assay
Autotaxin [3] = biological target: T1, Autotaxin; test: Inhibition of human ATX assessed as decrease in LPC hydrolysis by Amplex Red assay
Autotaxin [4] = biological target: T1, Autotaxin; test: Inhibition of human ATX assessed as decrease in LPC hydrolysis upto 2.5 uM by Amplex Red assay

For O=C(CSc1nnc(-c2ccco2)o1)N1c2ccccc2Sc2ccc(Cl)cc21, the inhibition (Autotaxin [1]) was 87%, the IC50 (Autotaxin [2]) was 9.41 µM and the inhibition (Autotaxin [3]) was “Active”. For the same compound, the inhibition (Autotaxin [4]) was “Active”.
Cc1nc(Nc2cccc(C3CCCN3C(=O)c3n[nH]c4c3CCCC4)n2)sc1C (stereo not drawn) was tested, and the inhibition (Autotaxin [1]) was 85%, the IC50 (Autotaxin [2]) was 2.53 µM and the inhibition (Autotaxin [3]) was “Active”. The inhibition (Autotaxin [4]) was “Active”.
